This note sets out measurements from patent US20240360114A1 (SIRONAX LTD., priority 2021, published 2024).

In one test the test system is HT-1080 cells. Nature of the test: HT-1080 cell viability assay (ferroptosis induced by RSL3, Cell Titer-Glo). The test is classed as cell-based. Conditions: Homo sapiens, HT-1080, 20 h, ferroptosis inducer RSL3, 20 hours, ferroptosis inhibitory activity, Table 2. The gist of the method: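 EC50 fitted by sigmoidal dose-response regression on luminescent viability data normalized to untreated cells. Compounds ran as a 10-point, 3-fold series from 1.1 μM alongside RSL3 for 20 hours, after overnight seeding.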
For orientation: Cellular ATP, detected with luciferase, serves as a proxy for viable cell number.
One may read the EC50 as the concentration that produces a half-maximal response. As for `COCC1CCC(Nc2ccc(C3CCC(C)(C)CC3)cc2)CC1` (stereo not shown) [Compound 75], the concentration for a half-maximal effect (EC50) was 100 to 1000 nM. The same measure, in the same setting: in the case of `CC(C)C1CCN(c2ccc(NC3CCC(N)CC3)cc2)CC1` (stereo not shown) [Compound 63, N1-(4-(4-isopropylpiperidin-1-yl)phenyl)cyclohexane-1,4-diamine] it was 0.1 to 100 nM. With `CC1CN(c2ccc(NC[C@H]3CC[C@H](N)CC3)c(C#N)c2)CC(C)O1` (stereo partly shown) [Compound 484, 2-((((1r,4r)-4-aminocyclohexyl)methyl)amino)-5-(2,6-dimethylmorpholino) benzonitrile], the EC50 lay within 1000 to 10000 nM. `COC1CCN(c2ccc(NC3CC4(CC(N)C4)C3)c(C)n2)CC1` (stereo not shown) [Compound 527] gave an EC50 of 0.1 to 100 nM. Still for that read-out and setting: the value for `CC1(C)CCC(c2ccc(NC(C)(C)CN3CCCC3)cc2)CC1` [Compound 203, 4-(4,4-dimethylcyclohexyl)-N-(2-methyl-1-(pyrrolidin-1-yl)propan-2-yl)aniline] was 100 to 1000 nM; that for `CC1(C)CCC(c2ccc(NC3CCC(CN)CC3)cn2)CC1` (stereo not shown) [Compound 167, N-(4-(aminomethyl)cyclohexyl)-6-(4,4-dimethylcyclohexyl)pyridin-3-amine] was 100 to 1000 nM; that for `CC(C)C1CCN(c2ncc(NC[C@H]3CC[C@H](NC(N)=O)CC3)cn2)CC1` [Compound 409, 1-((1r,4r)-4-(((2-(4-isopropylpiperidin-1-yl)pyrimidin-5-yl)amino)methyl)cyclohexyl)urea] was 0.1 to 100 nM. Still for that read-out and setting: the value for `CCN1C(C)CN(c2ccc(NC[C@H]3CC[C@H](N)CC3)cc2)CC1C` (stereo partly shown) [Compound 532, N-(((1r,4r)-4-aminocyclohexyl)methyl)-4-(4-ethyl-3,5-dimethylpiperazin-1-yl)aniline] was 100 to 1000 nM; that for `CC[C@@H]1CN(c2ccc(NC[C@H]3CC[C@H](N)CC3)c(C)n2)C[C@H](CC)O1` [Compound 500, N-(((1r,4R)-4-aminocyclohexyl)methyl)-6-((2R,6S)-2,6-diethylmorpholino)-2-methylpyridin-3-amine] was 0.1 to 100 nM; that for `CC1(C)CCC(c2ccc(NCCCCN)cc2)CC1` [Compound 225, N1-(4-(4,4-dimethylcyclohexyl)phenyl) butane-1,4-diamine] was 0.1 to 100 nM. The same measure, in the same setting: in the case of `NC1CCC(Nc2ccc3nc(N4CCC(C(F)(F)F)CC4)ccc3c2)CC1` (stereo not shown) [Compound 562, N-(2-(4-(trifluoromethyl)piperidin-1-yl)quinolin-6-yl)cyclohexane-1,4-diamine] it was 0.1 to 100 nM; in that of `COCCCCOc1cc(NC2CCC(N)CC2)ccc1N1CCC(C(F)(F)F)CC1` (stereo not shown) [Compound 39, N1-(3-(4-methoxybutoxy)-4-(4-(trifluoromethyl)piperidin-1-yl)phenyl)cyclohexane-1,4-diamine], 0.1 to 100 nM. `CC(C)(C)c1ccc(NC2CCC(C(N)=O)CC2)cc1` (stereo not shown) [Compound 192, 4-((4-(tert-butyl)phenyl)amino)cyclohexane-1-carboxamide] registered a half-maximal effective concentration (EC50) of 100 to 1000 nM. On the same count and under the same terms, the value for `Cc1nc(N2CC3COCC3C2)ccc1NC1CC2(CC(N)C2)C1` (stereo not shown) [Compound 521] was 0.1 to 100 nM; that for `CCNc1ccc(N2CCC(C(F)(F)F)CC2)cc1` [Compound 13, N-ethyl-4-(4-(trifluoromethyl)piperidin-1-yl)aniline] was 0.1 to 100 nM. Still for that read-out and setting: the value for `CC1(C)CCN(c2ccc(NC3CCC(N)CC3)cc2C(F)(F)F)CC1` (stereo not shown) [Compound 55, N1-(4-(4,4-dimethylpiperidin-1-yl)-3-(trifluoromethyl)phenyl)cyclohexane-1,4-diamine] was 0.1 to 100 nM; that for `C[C@H](O)[C@@H](N)C(=O)NC1CCC(Nc2ccc(C3CCC(C)(C)CC3)cc2)CC1` (stereo partly drawn) [Compound 279, (2R, 3S)-2-amino-N-(4-((4-(4,4-dimethylcyclohexyl)phenyl)amino)cyclohexyl)-3-hydroxybutanamide] was 0.1 to 100 nM; that for `CC1(C)Cc2ccc(NC3CCC(N)CC3)cc2C1` (stereo not shown) [Compound 324, N-(2,2-dimethyl-2,3-dihydro-1H-inden-5-yl)cyclohexane-1,4-diamine] was 0.1 to 100 nM. The same measure, in the same setting: in the case of `Cc1cc(C)cc(NC2CCC(N)CC2)c1` (stereo not shown) [Compound 331, N1-(3,5-dimethylphenyl)cyclohexane-1,4-diamine] it was 100 to 1000 nM; in that of `C[C@H]1CN(c2ccc(NC[C@H]3CC[C@H](N)CC3)cc2F)C[C@H](C)O1` [Compound 478, N-(((1r,4S)-4-aminocyclohexyl)methyl)-4-((2S,6S)-2,6-dimethylmorpholino)-3-fluoroaniline], 0.1 to 100 nM. As to `COC1(C(F)(F)F)CCN(c2ccc(NC3CC4(CC(N)C4)C3)c(C)n2)CC1` (stereo not shown) [Compound 498, N2-(6-(4-methoxy-4-(trifluoromethyl)piperidin-1-yl)-2-methylpyridin-3-yl)spiro[3.3]heptane-2,6-diamine], the EC50 is 0.1 to 100 nM.

Molecule `CC(C)(C)c1ccc(NC2CCC(N)(CN)CC2)cc1` (stereo not shown) [Compound 270, 1-(aminomethyl)-N4-(4-(tert-butyl)phenyl)cyclohexane-1,4-diamine] registered an EC50 of 100 to 1000 nM. The same measure, in the same setting: in the case of `CCc1ccc(NC2CCC(N)CC2)cn1` (stereo not shown) [Compound 208, N1-(6-ethylpyridin-3-yl)cyclohexane-1,4-diamine] it was 1000 to 10000 nM; in that of `NC1CCC(Nc2ccc3c(c2)CCC3)CC1` (stereo not shown) [Compound 162, N1-(2,3-dihydro-1H-inden-5-yl)cyclohexane-1,4-diamine], 100 to 1000 nM. On the same count and under the same terms, the value for `CC1CCN(c2ncc(NC3CCC(N)CC3)cn2)CC1` (stereo not shown) [Compound 44, N1-(2-(4-methylpiperidin-1-yl)pyrimidin-5-yl)cyclohexane-1,4-diamine] was 0.1 to 100 nM; that for `O=C1CC(C(=O)NCC2CCC(Nc3ccc(N4CCC(C(F)(F)F)CC4)cc3)CC2)CN1` (stereo not shown) [Compound 2, 5-oxo-N-((4-((4-(4-(trifluoromethyl)piperidin-1-yl)phenyl)amino)cyclohexyl)methyl)pyrrolidine-3-carboxamide] was 0.1 to 100 nM.

On to `CC1CCN(c2ccc(NC3CCC(N)CC3)cc2C(F)(F)F)CC1` (stereo not shown) [Compound 53A, N1-(4-(4-methylpiperidin-1-yl)-3-(trifluoromethyl)phenyl)cyclohexane-1,4-diamine], for which the EC50 was in the range of 0.1 to 100 nM. On the same count and under the same terms, in the case of `COCCNC1CCC(Nc2ccc(C(C)(C)C)cc2)CC1` (stereo not shown) [Compound 169, 1-N-(4-(tert-butyl)phenyl)-N4-(2-methoxyethyl)cyclohexane-1,4-diamine] it was 100 to 1000 nM. Same read-out and setting: the value for `CCCc1ccc(NC2CCC(CCN)CC2)cc1` (stereo not shown) [Compound 292, N-(4-(2-aminoethyl)cyclohexyl)-4-propylaniline] was 0.1 to 100 nM.

In turn, `CC(C)C1CCN(c2ncc(NC3CC(N)C3)cn2)CC1` (stereo not shown) [Compound 28, N1-(2-(4-isopropylpiperidin-1-yl)pyrimidin-5-yl)cyclobutane-1,3-diamine] came in with an EC50 of 0.1 to 100 nM. Same read-out and setting: in the case of `CC1(C)CCC(c2ccc(NC3CC(N)C3)cc2)CC1` (stereo not shown) [Compound 94, N1-(4-(4,4-dimethylcyclohexyl)phenyl)cyclobutane-1,3-diamine] it was 0.1 to 100 nM.

The molecule `CC(C)c1ccc(NC2CCC(CN)CC2)cc1` (stereo not shown) [Compound 283, N-(4-(aminomethyl)cyclohexyl)-4-isopropylaniline] came in with an EC50 of 0.1 to 100 nM. Still for that read-out and setting: in the case of `CC(C)C1CCN(c2ncc(NC3CCC(C)(N)CC3)cn2)CC1` (stereo not shown) [Compound 50, N1-(2-(4-isopropylpiperidin-1-yl)pyrimidin-5-yl)-4-methylcyclohexane-1,4-diamine] it was 0.1 to 100 nM.

`c1cc(C2CCCCC2)ccc1NC1CNC1` [Compound 109, N-(4-cyclohexylphenyl)azetidin-3-amine]: the concentration for a half-maximal effect (EC50) was 100 to 1000 nM. Molecule `CC1(C)CCC(c2ccc(NC3CCC(NC(=O)[C@H]4CNC(=O)N4)CC3)cc2)CC1` (single isomer, unassigned) [Compound 156A] gave an EC50 of 0.1 to 100 nM. On the same count and under the same terms, the value for `CC[C@@H]1CN(c2ccc(NC3CC4(CC(N)C4)C3)c(C)n2)C[C@@H](CC)O1` (stereo partly shown) [Compound 550] was 0.1 to 100 nM.

`CNC1CCC(Nc2ccc(C(C)(C)C)cc2)CC1` (stereo not shown) [Compound 147, N1-(4-(tert-butyl)phenyl)-N4-methylcyclohexane-1,4-diamine] returned a concentration giving a half-maximal response (EC50) of 0.1 to 100 nM. As to `NC1CCC(Nc2ccc(N3CCC(C(F)(F)F)CC3)c(Cl)c2)CC1` (stereo not shown) [Compound 67, N1-(3-chloro-4-(4-(trifluoromethyl)piperidin-1-yl)phenyl)cyclohexane-1,4-diamine], the concentration for a half-maximal effect (EC50) lay within 0.1 to 100 nM. Molecule `CC(C)C1CCN(c2ccc(NC3CCC(N)CC3)nc2)CC1` (stereo not shown) [Compound 406, N1-(5-(4-isopropylpiperidin-1-yl)pyridin-2-yl)cyclohexane-1,4-diamine] yielded an EC50 of 0.1 to 100 nM. On the same count and under the same terms, in the case of `CC1(C)CCC(c2ccc(NC3CCC(NC(=O)[C@H]4CNC(=O)N4)CC3)cc2)CC1` (stereo partly shown) [Compound 156C] it was 0.1 to 100 nM.

The test is the same for the next values; noted with them: Homo sapiens, HT-1080, 20 h, ferroptosis inducer RSL3, 20 hours, ferroptosis inhibitory activity, Table 3.
`NC1CC2(C1)CC(Nc1ccc3nc(NCC(F)(F)F)ccc3c1)C2` (stereo not shown) [Compound 639, N^6-(6-aminospiro[3.3]heptan-2-yl)-N^2-(2,2,2-trifluoroethyl) quinoline-2,6-diamine]: the half-maximal effective concentration (EC50) is 0.1 to 100 nM. The same measure, in the same setting: in the case of `Cc1nc(N2C[C@@H](C)O[C@@H](C)C2)ccc1NCCC[C@H]1C[C@@H](N)C1` [Compound 578, N-(3-((1s,3R)-3-aminocyclobutyl)propyl)-6-((2S,6R)-2,6-dimethylmorpholino)-2-methylpyridin-3-amine] it was 0.1 to 100 nM. Same read-out and setting: in the case of `Cc1nc(N2C[C@@H](C)O[C@@H](C)C2)ccc1NC12CCC(N)(CC1)C2` [Compound 627] it was 100 to 1000 nM; in that of `Cc1nc(N2C[C@@H](C)O[C@@H](C)C2)ccc1NC1C2CC3CC1CC(CNCCO)(C3)C2` (stereo partly shown) [Compound 585], 0.1 to 100 nM. Same read-out and setting: in the case of `CC(C)c1nc(N2C[C@@H](C)O[C@@H](C)C2)ccc1NC1CC2(CC(N)C2)C1` (stereo partly drawn) [Compound 613, N^2-(6-((2S, 6R)-2,6-dimethylmorpholino)-2-isopropylpyridin-3-yl)spiro[3.3]heptane-2,6-diamine] it was 0.1 to 100 nM.

The same test, now with this note: ferroptosis inducer RSL3, 20 hours, ferroptosis inhibitory activity, Table 2.
Take `CC(C)(C)c1ccc(NCC2CC(N)C2)cc1` (single isomer, unassigned) [Compound 335B, N-((3-aminocyclobutyl)methyl)-4-(tert-butyl)aniline]: the EC50 was in the range of 0.1 to 100 nM.
